Measured values published in patent US20230227437A1, “IMMUNOMODULATOR” (priority 2020, published 2023).

How the values were obtained:
[1] = target: T1, human IL-17A (hIL-17A) (Homo sapiens, UniProt Q16552); test: IL-17A enzyme-linked immunosorbent assay (competitive ELISA, receptor-ligand binding)
T1 construct: purchased Sino Biological Inc. 12047-H07B
T1 sequence (Q16552 24-155): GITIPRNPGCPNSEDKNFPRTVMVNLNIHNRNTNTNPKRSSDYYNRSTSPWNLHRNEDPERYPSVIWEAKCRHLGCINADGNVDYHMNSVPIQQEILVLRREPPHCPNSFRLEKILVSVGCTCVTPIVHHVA
Procedure: The inhibition of receptor-ligand binding by human IL-17A (hIL-17A) inhibitors was detected by competitive ELISA. A 96-well plate was inoculated 0.2 μg/ml IL-17 (Sino Biological Inc. Cat #12047-H07B) for incubation at 37° C. for 30 min, 100 μL for per well. The 96-well plate was washed four times with phosphate buffered saline (PBS) containing Tween-20 (PBST, 0.05% Tween-20), 200 μL for per well each time. 200 μL of 5% skim milk were added into the 96-well plate for incubation on a shaker at 25° C. for 30 min. The 96-well plate was washed four times with PBST (0.05% Tween-20), and added with 89 μL of PBST and 1 μL of a compound to be measured (100×), in which a concentration the compound to be measured (100×) was 0.003 μM-30 μM. The mixture was mixed evenly and incubated at 25° C. for 10 min. The mixture was added with 10 μL of 16 nM IL-17R, followed by incubation at 25° C. for 30 min. After washing the 96-well plate 4 times, 100 μL of anti-Fc tag horseradish peroxidase (HRP) coupled antibody were added for incubation on a shaker at 25° C. for 30 min. After washing the 96-well plate 4 times, 100 μL of 3,3′,5,5′-tetramethylbenzidine (TMB) substrate solution were added to the 96-well plate for incubation away from light at 25° C. After addition of 20% HCl, an absorbance was measure by a microplate reader at 450 nm.
The compounds prepared according to the above method were assayed for human IL-17A inhibitory activity.

[2] = target: T2, hIL-17A (Homo sapiens, UniProt Q16552); test: Inhibition of hIL-17A-induced chemokine GROα/CXCL1 production in HT-29 cell; assay type: cell-based
T2 construct: purchased R&D 317-ILB
T2 sequence (Q16552 20-155 limits assumed): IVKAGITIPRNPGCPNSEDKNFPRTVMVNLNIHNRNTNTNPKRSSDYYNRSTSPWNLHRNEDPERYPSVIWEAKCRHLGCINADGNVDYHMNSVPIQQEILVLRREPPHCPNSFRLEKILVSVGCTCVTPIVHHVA
Procedure: Human colorectal adenocarcinoma cell HT-29 was inoculated to a 96-well plate (5×10^4 for per well), and incubated at 37° C. on an incubator overnight. A mixture of 30 ng/mL hIL-17A protein (R&D, #317-ILB) with gradient concentrations of IL-17A small molecule inhibitors or with 0.3 μg/mL positive control IL-17A antibody (R&D, #AF-317-NA) was incubated for 1 h at 37° C., and added into the 96-well plate to incubated with HT-29 at 37° C. for 48 h. A level of GROα in a cell culture supernatant was then detected using an ELISA kit for GROα (Cisbio, #62HCXC1peg).
Inhibitory effect of the compound prepared in Examples on hIL-17A-induced chemokine GROα/CXCL1 production in HT-29 cell was tested according to the methods of Experimental Examples 1 and 2. […] “-” indicated not tested. According to the results, the compounds provided herein have good human IL-17A inhibitory activity and can be effectively used in the treatment of diseases associated with abnormal hIL-17A activity.

Structure (SMILES)	IC50 [1] [nM]	IC50 [2] [nM]
Cc1n[nH]c(C)c1-c1ccc(NC(=O)[C@@H](NC(=O)c2nonc2C2CC2)C2c3ccc(F)c(F)c3OCC23CC3)cc1 (some centres unmarked) [Compound 87]	165	332
Cc1n[nH]c(C)c1-c1ccc(NC(=O)[C@@H](NC(=O)c2ccnn2C)C2c3ccc(F)cc3CC23CC3)cn1 (some centres unmarked) [Compound 31]	72	872
Cc1n[nH]c(C)c1-c1ccc(NC(=O)[C@@H](NC(=O)c2ccnn2C(C)C)C2c3c(F)cc(F)cc3OCC23CC3)cn1 (some centres unmarked) [Compound 59]	222	1480
CCc1nonc1C(=O)N[C@H](C(=O)Nc1ccc(-c2c(C)n[nH]c2C)nc1)C1c2cc(F)ccc2OCC12CC2 (some centres unmarked) [Compound 23]	98	1050
Cc1n[nH]c(C)c1-c1ccc(NC(=O)[C@@H](NC(=O)c2nonc2C2CC2)C2c3c(F)cc(F)cc3OCC23CC3)cc1 (some centres unmarked) [Compound 67]	577	557
Cc1n[nH]c(C)c1-c1ccc(NC(=O)[C@@H](NC(=O)c2ccnn2C)C2c3c(F)cccc3CC23CC3)cc1 (some centres unmarked) [Compound 13]	31	391
Cc1n[nH]c(C)c1-c1ccc(NC(=O)[C@@H](NC(=O)c2nonc2C2CC2)C2c3cc(F)cc(F)c3OCC23CC3)cc1 (some centres unmarked) [Compound 80]	406	762
Cc1n[nH]c(C)c1-c1ncc(NC(=O)[C@@H](NC(=O)c2ccnn2C(C)C)C2c3c(F)cc(F)cc3OCC23CC3)cc1F (some centres unmarked) [Compound 60]	193	279
Cc1nonc1C(=O)N[C@H](C(=O)Nc1ccc(-c2c(C)n[nH]c2C)nc1)C1c2ccc(F)cc2CC12CC2 (some centres unmarked) [Compound 32]	75	351
Cc1n[nH]c(C)c1-c1ccc(NC(=O)[C@@H](NC(=O)OC2CC2)C2c3cc(F)c(F)cc3OCC23CC3)cc1 (some centres unmarked) [Compound 106]	66	119
Cc1nonc1C(=O)N[C@H](C(=O)Nc1ccc(-c2c(C)n[nH]c2C)cc1)C1c2cc(F)cc(F)c2OCC12CC2 (some centres unmarked) [Compound 69]	288	941
CCc1nonc1C(=O)N[C@H](C(=O)Nc1ccc(-c2c(C)n[nH]c2C)c(F)c1)C1c2ccc(F)cc2OCC12CC2 (some centres unmarked) [Compound 38]	276	506
Cc1n[nH]c(C)c1-c1ccc(NC(=O)[C@@H](NC(=O)c2nonc2C(C)C)C2c3cc(F)cc(F)c3OCC23CC3)cc1 (some centres unmarked) [Compound 74]	413	609
Cc1n[nH]c(C)c1-c1ccc(NC(=O)[C@@H](NC(=O)c2nonc2C(C)C)C2c3ccc(F)c(F)c3OCC23CC3)cc1 (some centres unmarked) [Compound 65]	222	212
Cc1n[nH]c(C)c1-c1ccc(NC(=O)[C@@H](NC(=O)c2ccnn2C(C)C)C2c3ccc(F)c(F)c3OCC23CC3)cn1 (some centres unmarked) [Compound 50]	81	569
COC(=O)N[C@H](C(=O)Nc1ccc(-c2c(C)n[nH]c2C)cc1)C1c2cc(F)c(F)cc2OCC12CC2 (some centres unmarked) [Compound 107]	51	383
Cc1n[nH]c(C)c1-c1ccc(NC(=O)[C@@H](NC(=O)c2ccnn2C)C2c3cc(F)ccc3OCC23CC3)cc1 (some centres unmarked) [Compound 4]	50	50
CCn1nccc1C(=O)N[C@H](C(=O)Nc1ccc(-c2c(C)n[nH]c2C)nc1)C1c2cc(F)ccc2OCC12CC2 (some centres unmarked) [Compound 21]	66	506
CCc1nocc1C(=O)N[C@H](C(=O)Nc1ccc(-c2c(C)n[nH]c2C)nc1)C1c2ccc(F)cc2OCC12CC2 (some centres unmarked) [Compound 34]	120	63
Cc1n[nH]c(C)c1-c1ccc(NC(=O)[C@@H](NC(=O)c2conc2C2CC2)C2c3ccc(F)cc3OCC23CC3)cn1 (some centres unmarked) [Compound 99]	96	213
Cc1n[nH]c(C)c1-c1ncc(NC(=O)[C@@H](NC(=O)c2nonc2C(C)C)C2c3cc(F)c(F)cc3OCC23CC3)cc1F (some centres unmarked) [Compound 46]	95	122
Cc1n[nH]c(C)c1-c1ccc(NC(=O)[C@@H](NC(=O)c2ccnn2C)C2c3ccccc3CC23CC3)cc1 (some centres unmarked) [Compound 1]	18	404
